Measurements as given in patent US20260183274A1, “PDK1 REGULATORY COMPOUND AND COMPOSITION CONTAINING THE SAME” (PROVIBIO CO., LTD., priority 2024, published 2026).

Tests used:
[1] = tested on: Human multiple myeloma, KMS34; test: Relative cell viability, KMS34; type: cell-based; conditions: KMS34 cells, 1 μM, relative to untreated cells
Description: (§1) After that, 10 μL of CCK-8 was added to each well, and the plate was incubated again at 37° C. in a 5% CO2 incubator for 2 hours.
(§2) In other words, when the survival rate of untreated cells (DMSO) is set at 100%, the relative cell survival rate in each group treated with the drug at different concentrations is indicated.

[2] = tested on: C57BL/6 mice with skin grafts; test: Skin graft animal model (BALB/c donor, C57BL/6 recipient); type: in vivo, mouse; conditions: 0.15 mg/kg twice daily
Description: To evaluate the immune-suppressive effects of the compounds according to the present invention, a skin graft animal model was established, and the efficacy of the compounds was analyzed in the model.
First, female BALB/c mice aged 7 weeks and weighing approximately 20 g were used as donor animals, and female C57BL/6 mice of the same age and weight were used as recipient animals. All experimental animals were supplied by HanabioTech Co., Ltd.
Prior to the experiment, the animals were acclimatized in SPF-certified facilities for one week and then used in the experiment. The housing conditions were maintained at a temperature of 22±2° C., relative humidity of 55+10%, and a 12-hour light-dark cycle.
To establish the skin graft model, a anesthetic solution consisting of ketamine, […], and PBS in a volume ratio of 1:1:3 was administered intraperitoneally to C57BL/6 mice to induce anesthesia.
The hair on the dorsal side of the anesthetized mice was removed and disinfected, followed by excision of the full-thickness skin using an 8 mm punch. Subsequently, skin of the same size was harvested from donor mice (BALB/c) and transplanted. […]
Subsequently, the proportions of CD3- and B220-positive cells were analyzed using a flow cytometer.

[3] = biological target: T1, PDK1-PKD protein (Protein Kinase Domain fragment) (Homo sapiens, UniProt O15530); test: Microscale Thermophoresis (MST) binding affinity, PDK1-PKD; conditions: in the presence of ATP; FIG. 48; read-out: Dissociation constant (Kd), PDK1-PKD
T1 construct: the Protein Kinase Domain (PKD) fragment; inferred from Ni-NTA purification; made in house; host or cells: Sf9 insect cells, baculovirus expression system
Description: Microscale Thermophoresis (MST) analysis was performed to quantitatively measure the binding affinity between PDK1 protein and substrate peptides (PDKTide) or the company-developed low-molecular-weight compound (GO88).
The target proteins were the full-length (PDK1-FL) protein of human-derived PDK1 and the Protein Kinase Domain (PKD) fragment, which were expressed using a baculovirus expression system in insect cell lines (Sf9).
The purity of the purified proteins was confirmed by SDS-PAGE and Coomassie Brilliant Blue staining.
The purified protein was labeled with a fluorescent label using the Monolith NT™ RED-NHS Protein Fluorescent Labeling Kit (NanoTemper).
Specifically, 20 μM of the protein was dissolved in PBS (pH 7.4) buffer, mixed with the fluorescent reagent, and reacted at room temperature under dark conditions for 30 minutes. The mixture was then buffered with MST analysis buffer (50 mM HEPES, 150 mM NaCl, 1 mM DTT, 0.05% Tween-20, pH 7.5). […]
The reaction samples were injected into an MST-specific capillary (NanoTemper) and analyzed using a Monolith NT.115 device (NanoTemper) under laser intensity conditions. […]
The measured data were analyzed using MO.Affinity Analysis software (NanoTemper), and the dissociation constant (Kd) was calculated from the binding curve.

[4] = tested on: Human multiple myeloma, KMS12PE; test: Relative cell viability, KMS12PE; type: cell-based; conditions: KMS-12-PE
Description: as §1, §2

[5] = tested on: NHDF (Normal Human Dermal Fibroblast) cells; test: Doxorubicin/IGF-1 induced aging of NHDF cells (SA-β-gal, Ki-67 FACS); type: cell-based; conditions: 0.01, 1 μM; Doxorubicin 100 ng/ml + IGF-1 100 ng/ml, 7 days; FIG. 39
Description: To confirm the anti-aging and rejuvenating effects of the compound GO15F of the present invention, a NHDF (Normal Human Dermal Fibroblast, Promocell) cell model was established by inducing aging with doxorubicin (Doxorubicin), and β-galactosidase activity and Ki-67 expression were analyzed in the cells. First, NHDF cells were seeded at 1×10^4 cells per well in a 12-well plate and stabilized for 24 hours. […] After pre-incubation, the medium was removed, and the cells were cultured for 7 days in medium containing Doxorubicin (100 ng/ml) and IGF-1 (100 ng/ml) with GO15F. During this process, the medium was replaced with fresh medium every 2 days. The cultured cells were washed with PBS, fixed with 1× fixation buffer for 15 minutes, washed again with PBS, and then 300 μL of 1× working SA-β-gal buffer was added to each well. The cells were incubated at 37° C. for 24 hours. After the reaction was terminated, the cells were washed with PBS, and the […] of β-gal-positive cells stained blue was observed and photographed using a light microscope. Additionally, to investigate the effect of the compound (GO15F) of the present invention on proliferation activity in aging-induced NHDF (Normal Human Dermal Fibroblast) cells, Ki-67 expression was measured via FACS analysis. First, NHDF cells were seeded at 1×10^4 cells per well in a 12-well plate and stabilized for 24 hours. […]

T1 sequence (O15530 82-342 limits assumed): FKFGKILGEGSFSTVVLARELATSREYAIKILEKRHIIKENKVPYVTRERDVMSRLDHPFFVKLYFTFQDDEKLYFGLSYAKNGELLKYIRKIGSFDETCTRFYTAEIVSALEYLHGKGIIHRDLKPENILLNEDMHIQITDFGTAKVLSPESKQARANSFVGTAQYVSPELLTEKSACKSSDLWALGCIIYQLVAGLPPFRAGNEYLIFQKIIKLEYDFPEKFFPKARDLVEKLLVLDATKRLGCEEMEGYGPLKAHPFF

CC1(C)CN(CCCCCCCCCCCCC(=O)Nc2nc(N)c3[nH]cnc3n2)CCO1 [Compound 11, 12-[4-(2,2-dimethylmorpholin-4-yl)]dodecyl-N-(6-aminopurine-2-yl) carboxamide]
Relative cell viability (%) [1]: 26.19%

Nc1ncccc1C(=O)NCCCCCCCCCCCCN1CCNCC1 [Compound 14, 2-Amino-N-(12-(piperazin-1-yl)dodecyl)nicotinamide]
Animals with graft pinkening and good blood flow ([2]; day 10 post-transplantation): three out of five | Animals with graft pinkening and good blood flow ([2]; day 15 post-transplantation): one out of five | Kd [3]: ~371 nM

Nc1ncccc1C(=O)NCCCCCCCCCCCCF [Compound 57, 2-Amino-N-(12-fluoro-dodecyl)-nicotinamide]
viability at 10 µM [4]: 41.7% | Number of β-gal-positive cells (SA-β-gal) [5]: the number of β-gal-positive cells decreased
